Converted amounts (≈) assume the structure as drawn. Read-outs that look alike come from different tables or passages of the source.
What was measured:
E. coli SK 12140 = assay: MIC in vitro; assay type: cell-based; conditions: Escherichia coli
Experimental: (§1) The compounds of Formula I have exceptional antibacterial activity against both Gram-positive and Gram-negative organisms. Minimum inhibitory concentrations (MIC's) ranged from 0.2 to <200 μg./ml. in in vitro testing.

Proteus morgani 179 = assay: MIC in vitro; assay type: cell-based
Experimental: as §1

S. aureus HH 127 = assay: MIC in vitro; assay type: cell-based; conditions: Staphylococcus aureus
Experimental: as §1

Strep. Faecalis HH 34358 = assay: MIC in vitro; assay type: cell-based; conditions: Enterococcus faecalis
Experimental: as §1

Kleb. pneumo. SK 1200 = assay: MIC in vitro; assay type: cell-based, Kleb. pneumoniae; conditions: Klebsiella pneumoniae
Experimental: as §1

Kleb. pneumo. SK 4200 = assay: MIC in vitro; assay type: cell-based, Kleb. pneumoniae; conditions: Klebsiella pneumoniae
Experimental: as §1

Psuedo. sp. HH 63 = assay: MIC in vitro; assay type: cell-based, Pseudo. aeruginosa; conditions: Pseudomonas aeruginosa
Experimental: as §1

[1] = test system: Entero. aerog. ATCC 13048; assay: MIC in vitro; assay type: cell-based, Enterobacter aerogenes; conditions: Klebsiella aerogenes
Experimental: as §1

Serra. marc ATCC 13880 = assay: MIC in vitro; assay type: cell-based, Serratia marcescens; conditions: Serratia marcescens
Experimental: as §1

Staph. aureus 671 = assay: MIC in vitro; assay type: cell-based; conditions: Staphylococcus aureus, Example 55 table
Staph. aureus 674 = assay: MIC in vitro; assay type: cell-based; conditions: Staphylococcus aureus, 674, Example 55 table
E. coli 804 = assay: MIC in vitro; assay type: cell-based; conditions: Escherichia coli, Example 55 table, read-out: MIC
Kleb. pneumoniae 982 = assay: MIC in vitro; assay type: cell-based; conditions: Klebsiella pneumoniae, Example 55 table, read-out: MIC
Pseudo. aeruginosa 647 = assay: MIC in vitro; assay type: cell-based; conditions: Pseudomonas aeruginosa, Example 55 table, read-out: MIC
Proteus mirabilis 444 = assay: MIC in vitro; assay type: cell-based; conditions: Example 55 table, read-out: MIC
Enterobacter cloacae 921 = assay: MIC in vitro; assay type: cell-based; conditions: Enterobacter cloacae, 921, Example 55 table
E. coli 12140 = assay: In vivo mouse protection, E. coli 12140
Kleb. pneumo. 4200 = assay: In vivo mouse protection, Kleb. pneumo. 4200; conditions: sc
E. coli HH 33779 = assay: MIC in vitro; assay type: cell-based; conditions: Escherichia coli, HH33779, Table 1; E. coli HH 33779; read-out: MIC in vitro
Experimental: as §1

S. aureus SK 23390 = assay: MIC in vitro; assay type: cell-based; conditions: Staphylococcus aureus
Experimental: as §1

S. villaluz = assay: MIC in vitro; assay type: cell-based; conditions: Table 1
Experimental: as §1

Salmonella ATCC 12176 = assay: MIC in vitro; assay type: cell-based; conditions: Salmonella, ATCC12176, Table 1, read-out: MIC in vitro
Experimental: as §1

shigella HH 117 = assay: MIC in vitro; assay type: cell-based; conditions: HH117; Table 1; shigella HH 117; read-out: MIC in vitro
Experimental: as §1

Entero. cloacae HH 31254 = assay: MIC in vitro; assay type: cell-based; conditions: Enterobacter cloacae
[2] = SK12140, read-out: MIC in vitro, Table 1, E. coli SK 12140
[3] = Table 1, read-out: MIC in vitro
[4] = HH127, Table 1, S. aureus HH 127, read-out: MIC in vitro
[5] = SK23390, Table 1, S. aureus SK 23390, read-out: MIC in vitro
[6] = Table 1, Strep. Faecalis HH 34358, read-out: MIC in vitro
[7] = Table 1, Kleb. pneumo. SK 1200, read-out: MIC in vitro
[8] = Table 1, Kleb. pneumo. SK 4200, read-out: MIC in vitro
[9] = Table 1, Psuedo. sp. HH 63, read-out: MIC in vitro
[10] = ATCC13048, Table 1, Entero. aerog. ATCC 13048, read-out: MIC in vitro
[11] = ATCC13880, Table 1, Serra. marc ATCC 13880, read-out: MIC in vitro
[12] = HH31254, Table 1, read-out: MIC in vitro
[13] = Escherichia coli, 12140, sc, Table 2, E. coli 12140, s.c., read-out: ED50 in vivo
[14] = Table 2, Kleb. pneumo. 4200, s.c., read-out: ED50 in vivo
[15] = SK12140, Table 1, E. coli SK 12140, read-out: MIC in vitro
[16] = Escherichia coli, 12140, po, Table 2, E. coli 12140, p.o., read-out: ED50 in vivo
[17] = HH31254, read-out: MIC in vitro, Table 1

| SMILES | MIC (E. coli HH 33779) [µg/mL] | MIC (E. coli SK 12140; [2]) [µg/mL] | MIC (Proteus morgani 179; [3]) [µg/mL] | MIC (S. aureus HH 127; [4]) [µg/mL] | MIC (S. aureus SK 23390; [5]) [µg/mL] | MIC (S. villaluz) [µg/mL] | MIC (Salmonella ATCC 12176) [µg/mL] | MIC (Strep. Faecalis HH 34358; [6]) [µg/mL] | MIC (shigella HH 117) [µg/mL] | MIC (Kleb. pneumo. SK 1200; [7]) [µg/mL] | MIC (Kleb. pneumo. SK 4200; [8]) [µg/mL] | MIC (Psuedo. sp. HH 63; [9]) [µg/mL] | MIC [1, 10] [µg/mL] | MIC (Serra. marc ATCC 13880; [11]) [µg/mL] | MIC (Entero. cloacae HH 31254; [12]) [µg/mL] | ED50 (E. coli 12140; [13]) [mg/kg] | ED50 (Kleb. pneumo. 4200; [14]) [mg/kg] | MIC (E. coli SK 12140; [15]) [µg/mL] | ED50 (E. coli 12140; [16]) [mg/kg] | MIC (Entero. cloacae HH 31254; [17]) [µg/mL] | also measured |
| --- | --- | --- | --- | --- | --- | --- | --- | --- | --- | --- | --- | --- | --- | --- | --- | --- | --- | --- | --- | --- | --- |
| NCc1cccc(CC(=O)NC2C(=O)N3C(C(=O)O)=C(CSc4nnnn4CS(=O)(=O)O)CSC23)c1 (stereo not shown) [Example 55, 7-(3-Aminomethylphenylacetamido)-3-(1-sulfomethyltetrazol-5-ylthiomethyl)-3-cephem-4-carboxylic acid] |  |  |  |  |  |  |  |  |  |  |  |  |  |  |  |  |  |  |  |  | MIC (E. coli SK 12140; SK12140, Example 55 table, E. coli SK&F 12140, read-out: MIC): 1.6 µg/mL (≈ 2.88 µM); MIC (Proteus morgani 179; Example 55 table, read-out: MIC): > 100 µg/mL; MIC (S. aureus HH 127; Example 55 table, Staph. aureus HH127, read-out: MIC): 1.6 µg/mL (≈ 2.88 µM); MIC (Strep. Faecalis HH 34358; Example 55 table, Strep. faecalis HH 34358, read-out: MIC): 100 µg/mL (≈ 180 µM); MIC (Kleb. pneumo. SK 1200; Example 55 table, Kleb. pneumoniae SK&F 1200, read-out: MIC): ≤ 0.1 µg/mL; MIC (Kleb. pneumo. SK 4200; Example 55 table, Kleb. pneumoniae SK&F 4200, read-out: MIC): 0.2 µg/mL (≈ 0.36 µM); MIC (Psuedo. sp. HH 63; Example 55 table, Pseudo. aeruginosa HH63, read-out: MIC): > 100 µg/mL; MIC ([1]; ATCC13048, Example 55 table, Enterobacter aerogenes 13048, read-out: MIC): 50 µg/mL (≈ 90 µM); MIC (Serra. marc ATCC 13880; ATCC13880, Example 55 table, Serratia marcescens ATCC 13880, read-out: MIC): > 100 µg/mL; MIC (Staph. aureus 671): 6.3 µg/mL (≈ 11.3 µM); MIC (Staph. aureus 674): 1.6 µg/mL (≈ 2.88 µM); MIC (E. coli 804): > 100 µg/mL; MIC (Kleb. pneumoniae 982): > 100 µg/mL; MIC (Pseudo. aeruginosa 647): > 100 µg/mL; MIC (Proteus mirabilis 444): 0.4 µg/mL (≈ 0.72 µM); MIC (Enterobacter cloacae 921): 25 µg/mL (≈ 45 µM); ED50 (E. coli 12140; Escherichia coli, 12140, sc, Example 55, s.c., E. coli SKF 12140, read-out: ED50): 1.82 mg/kg; ED50 (Kleb. pneumo. 4200; Example 55, s.c., K. pneumo. SK&F 4200, read-out: ED50): < 0.19 mg/kg |
| O=C(Cc1cccs1)NC1C(=O)N2C(C(=O)O)=C(CSc3nnnn3CCS(=O)(=O)O)CS[C@H]12 (stereo partly shown) [VI, 7-(2-Thienylacetamido)-3-[1-(2-sulfoethyl)tetrazol-5-ylthiomethyl]-3-cephem-4-carboxylic acid] | 12.5 (≈ 22.9 µM) | 3.1 (≈ 5.67 µM) | > 200 | 1.6 (≈ 2.93 µM) | 0.8 (≈ 1.46 µM) | 3.1 (≈ 5.67 µM) | 0.8 (≈ 1.46 µM) | 50 (≈ 91.5 µM) | 3.1 (≈ 5.67 µM) | 0.8 (≈ 1.46 µM) | 1.6 (≈ 2.93 µM) | > 200 | 25 (≈ 45.7 µM) | > 200 | 6.3 (≈ 11.5 µM) | 4.4 | 1.56 |  |  |  |  |
| NS(=O)(=O)CCn1nnnc1SCC1=C(C(=O)O)N2C(=O)C(NC(=O)Cc3cccs3)[C@H]2SC1 (stereo partly shown) [VIII, 7-(2-thienylacetamido)-3-[1-(2-sulfamoylethyl)tetrazol-5-ylthiomethyl]-3-cephem-4-carboxylic acid] | 1.6 (≈ 2.93 µM) |  | > 200 | 0.4 (≈ 0.733 µM) | 0.1 (≈ 0.183 µM) | 1.6 (≈ 2.93 µM) | 0.8 (≈ 1.47 µM) | 6.3 (≈ 11.5 µM) | 0.4 (≈ 0.733 µM) |  | 1.6 (≈ 2.93 µM) | > 200 | 3.1 (≈ 5.68 µM) | 200 (≈ 367 µM) | 0.8 (≈ 1.47 µM) | 1.32 | 2 | 0.8 (≈ 1.47 µM) | > 50 |  | MIC (Kleb. pneumo. SK 1200; read-out: MIC in vitro): 0.4 µg/mL (≈ 0.733 µM) |
| NS(=O)(=O)CCn1nnnc1SCC1=C(C(=O)O)N2C(=O)C(NC(=O)CSC(F)(F)F)C2SC1 (stereo not shown) [IX, 7-Trifluoromethylthioacetamido-3-[1-(2-sulfamoylethyl)tetrazol-5-ylthiomethyl]-3-cephem-4-carboxylic acid] | 1.6 (≈ 2.84 µM) | 0.8 (≈ 1.42 µM) | 200 (≈ 355 µM) | 0.4 (≈ 0.71 µM) |  | 6.3 (≈ 11.2 µM) | 0.4 (≈ 0.71 µM) | 12.5 (≈ 22.2 µM) | 0.2 (≈ 0.355 µM) | 0.4 (≈ 0.71 µM) |  | > 200 | 1.6 (≈ 2.84 µM) | 100 (≈ 177 µM) |  | 1.56 |  |  | 44 | 0.8 (≈ 1.42 µM) | MIC (S. aureus SK 23390; SK23390, read-out: MIC in vitro): 0.2 µg/mL (≈ 0.355 µM); MIC (Kleb. pneumo. SK 4200; read-out: MIC in vitro): 0.8 µg/mL (≈ 1.42 µM) |
| O=C(Cn1cnnn1)NC1C(=O)N2C(C(=O)O)=C(CSc3nnnn3CS(=O)(=O)O)CSC12 (stereo not shown) [X, 7-(1-tetrazolylacetamido)-3-(1-sulfomethyltetrazol-5-ylthiomethyl)-3-cephem-4-carboxylic acid] | 0.8 (≈ 1.54 µM) | 0.4 (≈ 0.771 µM) | 200 (≈ 386 µM) | 1.6 (≈ 3.09 µM) | 1.6 (≈ 3.09 µM) | > 200 | 0.4 (≈ 0.771 µM) | 50 (≈ 96.4 µM) | 0.2 (≈ 0.386 µM) | 0.2 (≈ 0.386 µM) | 0.4 (≈ 0.771 µM) | > 200 | 3.1 (≈ 5.98 µM) | 200 (≈ 386 µM) |  | 1.56 | 0.64 |  | 50 | 0.8 (≈ 1.54 µM) |  |
| O=C(O)C1=C(CSc2nnnn2CCCCCS(=O)(=O)O)CS[C@@H]2C(NC(=O)[C@H](O)c3ccccc3)C(=O)N12 (stereo partly drawn) [IV, 7-D-Mandelamido-3-[1-(5-sulfopentyl)tetrazol-5-ylthiomethyl]-3-cephem-4-carboxylic acid] | 6.3 (≈ 10.5 µM) |  | 3.1 (≈ 5.18 µM) |  | 0.8 (≈ 1.34 µM) | 12.5 (≈ 20.9 µM) | 3.1 (≈ 5.18 µM) | 50 (≈ 83.5 µM) | 0.8 (≈ 1.34 µM) | 1.6 (≈ 2.67 µM) | 1.6 (≈ 2.67 µM) | > 200 | 6.3 (≈ 10.5 µM) | 100 (≈ 167 µM) |  | 18 | 15.7 | 1.6 (≈ 2.67 µM) | > 50 | 0.8 (≈ 1.34 µM) | MIC (S. aureus HH 127; HH127, read-out: MIC in vitro, Table 1, S. aureus HH 127): 3.1 µg/mL (≈ 5.18 µM) |

Reference: US4159373A, “7-Acyl-3-(sulfonic acid and sulfamoyl substituted tetrazolyl thiomethyl) cephalosporins” (SmithKline Corporation, priority 1978, dated 1979)
